Test results as given in ChEMBL document CHEMBL1949543, “Synthesis and evaluation of novel monosubstituted sulfonylurea derivatives as antituberculosis agents” (Eur J Med Chem, 2012).
Values after ≈ are worked out from the molar mass of the structure shown.

Tests used:
[1] = Selectivity ratio of IC50 for human THP1 cells to MIC for Mycobacterium tuberculosis H37Rv ATCC 27294; format: functional, THP-1
[2] = test system: Mycobacterium tuberculosis; test: Antituberculosis activity against Mycobacterium tuberculosis H37Rv ATCC 27294; format: functional
[3] = test system: Mycobacterium tuberculosis; test: Antituberculosis activity against Mycobacterium tuberculosis isolate A; format: functional
[4] = test system: Mycobacterium avium; test: Antituberculosis activity against Mycobacterium avium ATCC 25291; format: functional, Mycobacterium avium subsp. avium ATCC 25291
[5] = test system: Mycobacterium kansasii; test: Antituberculosis activity against Mycobacterium kansasii ATCC 12478; format: functional
[6] = test system: THP-1; test: Cytotoxicity against human THP1 cells after 72 hrs by MTT assay; format: cell-based; conditions: THP-1, 72 h
[7] = Selectivity ratio of IC50 for human THP1 cells to MIC for Mycobacterium tuberculosis isolate A; format: functional, THP-1

## Cc1ccnc(NC(=O)NS(=O)(=O)c2cc(NC(=O)CCl)ccc2Cl)n1
[1]
  Selectivity ratio: 10
[2]
  MIC: 10 µg/mL (≈ 23.9 µM)
[3]
  MIC: 10 µg/mL (≈ 23.9 µM)
[4]
  MIC: > 100 µg/mL
[5]
  MIC: 20 µg/mL (≈ 47.8 µM)
[6]
  IC50: 138 µg/mL (≈ 330 µM)
[7]
  Selectivity ratio: 10

## Cc1ccnc(NC(=O)NS(=O)(=O)c2cc(NC(=O)C(F)(F)C(F)(F)C(F)(F)F)ccc2Cl)n1
[2]
  MIC: > 100 µg/mL

## COc1ccnc(NC(=O)NS(=O)(=O)c2cc(NC(=O)C(F)(F)F)ccc2Cl)n1
[2]
  MIC: > 100 µg/mL

## CC(=O)OCC(=O)Nc1ccc(Cl)c(S(=O)(=O)NC(=O)Nc2nccc(C)n2)c1
[2]
  MIC: > 100 µg/mL

## Cc1ccnc(NC(=O)NS(=O)(=O)c2cc(NC(=O)C3CC3)ccc2Cl)n1
[2]
  MIC: > 100 µg/mL

## Cc1ccnc(NC(=O)NS(=O)(=O)c2cc(NC(=O)C(C)C)ccc2Cl)n1
[2]
  MIC: > 100 µg/mL

## COC(=O)c1ccccc1S(=O)(=O)NC(=O)Nc1nc(C)cc(C)n1 [SULFOMETURON METHYL]
[2]
  MIC: 10 µg/mL (≈ 27.4 µM)

## COc1ccnc(NC(=O)NS(=O)(=O)c2cc(NC(=O)CCl)ccc2Cl)n1
[1]
  Selectivity ratio: 10
[2]
  MIC: 10 µg/mL (≈ 23 µM)
[3]
  MIC: 10 µg/mL (≈ 23 µM)
[4]
  MIC: > 100 µg/mL
[5]
  MIC: 20 µg/mL (≈ 46.1 µM)
[6]
  IC50: 180 µg/mL (≈ 414 µM)
[7]
  Selectivity ratio: 10

## Cc1ccnc(NC(=O)NS(=O)(=O)c2cc(NC(=O)C(C)Cl)ccc2Cl)n1 (stereo not drawn)
[2]
  MIC: > 100 µg/mL

## CCOC(=O)C(=O)Nc1ccc(Cl)c(S(=O)(=O)NC(=O)Nc2nccc(OC)n2)c1
[2]
  MIC: > 100 µg/mL

## C=CC(=O)Nc1ccc(Cl)c(S(=O)(=O)NC(=O)Nc2nccc(OC)n2)c1
[2]
  MIC: 40 µg/mL (≈ 97.1 µM)

## CC(=O)Nc1ccc(Cl)c(S(=O)(=O)NC(=O)Nc2nccc(C)n2)c1
[2]
  MIC: > 100 µg/mL

## COc1ccnc(NC(=O)NS(=O)(=O)c2cc(NC(=O)C(C)C)ccc2Cl)n1
[2]
  MIC: > 100 µg/mL

## COc1ccnc(NC(=O)NS(=O)(=O)c2cc(NC(=O)C(F)(F)C(F)(F)C(F)(F)F)ccc2Cl)n1
[2]
  MIC: > 100 µg/mL

## COc1ccnc(NC(=O)NS(=O)(=O)c2cc(NC(=O)C(C)Cl)ccc2Cl)n1 (stereo not drawn)
[2]
  MIC: > 100 µg/mL

## CCOC(=O)C(=O)Nc1ccc(Cl)c(S(=O)(=O)NC(=O)Nc2nccc(C)n2)c1
[2]
  MIC: > 100 µg/mL

## C=CC(=O)Nc1ccc(Cl)c(S(=O)(=O)NC(=O)Nc2nccc(C)n2)c1
[2]
  MIC: 20 µg/mL (≈ 50.5 µM)

## Cc1ccnc(NC(=O)NS(=O)(=O)c2cc(NC(=O)C(F)(F)F)ccc2Cl)n1
[2]
  MIC: > 100 µg/mL

## COc1ccnc(NC(=O)NS(=O)(=O)c2cc(NC(=O)COC(C)=O)ccc2Cl)n1
[2]
  MIC: > 100 µg/mL

## COc1ccnc(NC(=O)NS(=O)(=O)c2cc(NC=O)ccc2Cl)n1
[2]
  MIC: > 100 µg/mL

## Cc1ccnc(NC(=O)NS(=O)(=O)c2cc(NC=O)ccc2Cl)n1
[2]
  MIC: > 100 µg/mL

## COc1ccnc(NC(=O)NS(=O)(=O)c2cc(NC(=O)C3CC3)ccc2Cl)n1
[2]
  MIC: > 100 µg/mL

## Cc1ccnc(NC(=O)NS(=O)(=O)c2cc(NC(=O)C(C)(C)C)ccc2Cl)n1
[2]
  MIC: > 100 µg/mL

## COc1ccnc(NC(=O)NS(=O)(=O)c2cc(NC(C)=O)ccc2Cl)n1
[2]
  MIC: > 100 µg/mL

## COc1ccnc(NC(=O)NS(=O)(=O)c2cc(NC(=O)C(C)(C)C)ccc2Cl)n1
[2]
  MIC: > 100 µg/mL

## Cc1ccnc(NC(=O)NS(=O)(=O)c2cc(NC(=O)c3ccccc3)ccc2Cl)n1
[2]
  MIC: 100 µg/mL (≈ 224 µM)
